The values that follow come from patent publication US20110053925A1, “Hydroxamate-Based Inhibitors of Deacetylases” (Novartis AG, priority 2009, published 2011).

Each structure is given as a SMILES string.

In the experiment the target is T1, HDAC-1 (Homo sapiens, UniProt Q13547).
T1 construct: made in house; host or cells: Sf9 or Sf21 insect cells (baculovirus, donor vector pFB-GSTX3)
Put plainly: HDAC Inhibition Assay (purified GST-HDAC protein). It is filed as biochemical. An excerpt:
The baculovirus donor vector pFB-GSTX3 is used to generate a recombinant baculovirus that can express the HDAC polypeptide. Transfer vectors containing the HDAC coding region are transfected into the DH10Bac cell line (GIBCO) and plated on selective agar plates. Colonies without insertion of the fusion sequence into the viral genome (carried by the bacteria) are blue. Single, white colonies are picked and viral DNAs (bacmid) are isolated from the bacteria by standard plasmid purification procedures. Sf9 cells or Sf21 (American Type Culture Collection) cells are then transfected in […] flasks with the viral DNA using Cellfectin reagent.
Virus-containing media is collected from the transfected cell culture and used for infection to increase its titer. Virus-containing media obtained after two rounds of infection is used for large-scale protein expression. For large-scale protein expression 100 cm^2 round tissue culture plates are seeded with 5×10^7 cells/plate and infected with 1 mL of virus-containing media (at an approximately MOI of 5). After 3 days, the cells are scraped off the plate and centrifuged at 500 rpm for 5 minutes. Cell pellets from 10-20, 100 cm^2 plates, are re-suspended in 50 mL of ice-cold lysis buffer (25 mM tris-HCl, pH 7.5, 2 mM EDTA, 1% NP-40, 1 mM DTT, 1 mM P MSF). The cells are stirred on ice for 15 minutes and then centrifuged at 5,000 rpms for 20 minutes.
The centrifuged cell lysate is loaded onto a 2 mL glutathione-sepharose column (Pharmacia) and is washed thrice with 10 mL of 25 mM tris-HCl, pH 7.5, 2 mM EDTA, 1 mM DTT, 200 mM NaCl. The GST-tagged proteins are then eluted by 10 applications (1 mL each) of 25 mM tris-HCl, pH 7.5, 10 mM reduced-glutathione, 100 mM NaCl, 1 mM DTT, 10% glycerol and stored at −70° C.
HDAC assays with purified GST-HDAC protein are carried out in a final volume of 30 μL containing 15 ng of GST-HDAC protein, 20 mM tris-HCl, pH 7.5, 1 mM MnCl2, 10 mM MgCl2, 1 mM DTT, 3 μg/mL poly(Glu,Tyr) 4:1, 1% DMSO, 2.0 μM ATP (γ-[^33P]-ATP 0.1 μCi). The activity is assayed in the presence or absence of inhibitors. […] Subsequently, […] of the reaction mixture are transferred onto EMMOBILON-PVDF membrane (Millipore) previously soaked for 5 minutes with methanol, rinsed with water, then soaked for 5 minutes with 0.5% H3PO4 and mounted on vacuum manifold with disconnected vacuum source. After spotting all samples, a vacuum is connected and each well rinsed with 200 μL 0.5% H3PO4. Membranes are removed and washed four times on a shaker with 1.0% H3PO4, once with ethanol. Membranes are counted after drying at ambient temperature, mounting in Packard TopCount 96-well frame, and addition of 10 μL/well of MICROSCINT™ (Packard).
• Input: 3×4 μL stopped assay on IMMOBILON membrane, not washed • Background (3 wells): assay with H2O instead of enzyme • Positive control (4 wells): 3% DMSO instead of compound • Bath control (1 well): no reaction mix
In each experiment, the actual inhibition by reference compound is used for normalization of IC50 values to the basis of an average value of the reference inhibitor:
Normalized IC50=measured IC50 average ref. IC50/measured ref. IC50

T1 sequence (Q13547 whole entry, species assumed): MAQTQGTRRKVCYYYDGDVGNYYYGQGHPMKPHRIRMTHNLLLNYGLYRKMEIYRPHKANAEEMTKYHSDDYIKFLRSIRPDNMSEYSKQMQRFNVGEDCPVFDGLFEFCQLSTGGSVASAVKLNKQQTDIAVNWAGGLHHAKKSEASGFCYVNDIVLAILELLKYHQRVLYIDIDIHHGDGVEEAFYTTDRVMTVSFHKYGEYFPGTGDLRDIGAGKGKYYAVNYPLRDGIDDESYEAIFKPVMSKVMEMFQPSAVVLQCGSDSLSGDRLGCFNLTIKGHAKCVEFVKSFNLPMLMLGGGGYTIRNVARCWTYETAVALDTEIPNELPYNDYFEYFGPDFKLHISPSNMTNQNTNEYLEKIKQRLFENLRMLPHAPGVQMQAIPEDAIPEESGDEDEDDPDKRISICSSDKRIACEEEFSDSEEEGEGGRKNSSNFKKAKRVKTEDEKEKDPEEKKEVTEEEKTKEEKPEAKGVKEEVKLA

As usually defined, the IC50 is the concentration at which inhibition is half-maximal. A low value points to inhibition by little substance. For `O=C(/C=C/c1ccc(CN2CCC3(CC2)NC(=O)N(CC2CC2)C3=O)cc1)NO` [Compound 37, (E)-3-[4-(3-Cyclopropylmethyl-2,4-dioxo-1,3,8-triaza-spiro[4.5]dec-8-ylmethyl)-phenyl]-N-hydroxy-acrylamide], the IC50 is less than 430 nM.

In turn, `O=C(/C=C/c1ccc(CN2CCN(C(=O)Nc3ccccc3)c3ccccc32)cc1)NO` [Compound 59, 4-[4-((E)-2-Hydroxycarbamoyl-vinyl)-benzyl]-3,4-dihydro-2H-quinoxaline-1-carboxylic acid phenylamide] showed an IC50 of 320 nM.

Consider `O=C(/C=C/c1ccc(CN2CCN(C(=O)C3CCCCC3)CC2)cc1)NO` [Compound 54, (E)-3-[4-(4-Cyclohexanecarbonyl-piperazin-1-ylmethyl)-phenyl]-N-hydroxy-acrylamide], for which the IC50 is 130 nM.

On to `O=C(/C=C/c1ccc(CN2CCC(Cc3ccccc3)CC2)cc1)NO` [Compound 49, (E)-3-[4-(4-Benzyl-piperidin-1-ylmethyl)-phenyl]-N-hydroxy-acrylamide], for which the IC50 worked out at 37 nM.

The compound `CC(C)(C)CC(=O)N1CCN(Cc2ccc(/C=C/C(=O)NO)cc2)CC1` [Compound 53, (E)-3-{4-[4-(3,3-Dimethyl-butyryl)-piperazin-1-ylmethyl]-phenyl}-N-hydroxy-acrylamide] registered a 50% inhibitory concentration (IC50) of 160 nM.

Compound `O=C(/C=C/c1ccc(CN2CCN(Cc3ccc(Br)cc3)CC2)cc1)NO` [Compound 27, (E)-3-{4-[4-(4-Bromo-benzyl)-piperazin-1-ylmethyl]-phenyl}-N-hydroxy-acrylamide] displayed a half-inhibitory concentration (IC50) of 130 nM.

Regarding `O=C(/C=C/c1ccc(CN2CCC3(CC2)OC(=O)Nc2ccccc23)cc1)NO` [Compound 34], the half-inhibitory concentration (IC50) was 32 nM.

The compound `O=C(/C=C/c1ccc(CN2CCN(C(=O)C3CCCCC3)c3ccccc32)cc1)NO` [Compound 60, (E)-3-[4-(4-Cyclohexanecarbonyl-3,4-dihydro-2H-quinoxalin-1-ylmethyl)-phenyl]-N-hydroxy-acrylamide] yielded an IC50 of 220 nM.

Consider `O=C(/C=C/c1ccc(CN2CCCCC2)cc1)NO` [Compound 33, (E)-N-Hydroxy-3-(4-piperidin-1-ylmethyl-phenyl)-acrylamide], for which the half-inhibitory concentration (IC50) is 100 nM.

The compound `O=C(/C=C/c1ccc(CN2CCN(S(=O)(=O)c3ccccc3)c3ccccc32)cc1)NO` [Compound 58, (E)-3-[4-(4-Benzenesulfonyl-3,4-dihydro-2H-quinoxalin-1-ylmethyl)-phenyl]-N-hydroxy-acrylamide] displayed an IC50 of 290 nM.

For the compound `CS(=O)(=O)N1CC2(CCN(Cc3ccc(/C=C/C(=O)NO)cc3)CC2)c2ccccc21` [Compound 39], the IC50 was 27 nM.

As for `CC(=O)N(C)CC1(c2ccccc2)CCN(Cc2ccc(/C=C/C(=O)NO)cc2)CC1` [Compound 42, (E)-3-(4-{4-[(Acetyl-methyl-amino)-methyl]-4-phenyl-piperidin-1-ylmethyl}-phenyl)-N-hydroxy-acrylamide], half-maximal inhibition (IC50) was put at 70 nM.

The compound `CCC(=O)N1CCN(Cc2ccc(/C=C/C(=O)NO)cc2)CC1` [Compound 52, (E)-N-Hydroxy-3-[4-(4-propionyl-piperazin-l-ylmethyl)-phenyl]-acrylamide] gave an IC50 of 350 nM.

In turn, `Cc1ccc(S(=O)(=O)N2CCN(Cc3ccc(/C=C/C(=O)NO)cc3)CC2)cc1` [Compound 55, (E)-N-Hydroxy-3-{4-[4-(toluene-4-sulfonyl)-piperazin-1-ylmethyl]-phenyl}-acrylamide] showed an IC50 of 230 nM.

The compound `O=C(/C=C/c1ccc(CN2CCC(CC(=O)NO)(c3ccc(Cl)cc3)CC2)cc1)NO` [Compound 45, (E)-3-{4-[4-(4-Chloro-phenyl)-4-hydroxycarbamoylmethyl-piperidin-1-ylmethyl]-phenyl}-N-hydroxy-acrylamide] showed a 50% inhibitory concentration (IC50) of 110 nM.

In turn, `O=C(/C=C/c1ccc(CN2CCOC(c3nc(-c4ccccc4)no3)C2)cc1)NO` (stereo not shown) [Compound 25, (E)-N-Hydroxy-3-{4-[2-(3-phenyl-[1,2,4]oxadiazol-5-yl)-morpholin-4-ylmethyl]-phenyl}-acrylamide] showed a 50% inhibitory concentration (IC50) of 39 nM.

`O=C(/C=C/c1ccc(CN2CCC(N3CCc4ccccc4C3=O)CC2)cc1)NO` [Compound 41, (E)-N-Hydroxy-3-{4-[4-(1-oxo-3,4-dihydro-1H-isoquinolin-2-yl)-piperidin-1-ylmethyl]-phenyl}-acrylamide]: it took 16 nM to reach half-maximal inhibition (IC50).

The compound `O=C(/C=C/c1ccc(CN2CCN(Cc3ccccc3)CC2)cc1)NO` [Compound 26, (E)-3-[4-(4-Benzyl-piperazin-1-ylmethyl)-phenyl]-N-hydroxy-acrylamide] displayed an IC50 of 100 nM.

As for `O=C(/C=C/c1ccc(CN2CCN(S(=O)(=O)c3ccc(F)cc3)CC2)cc1)NO` [Compound 57, (E)-3-{4-[4-(4-Fluoro-benzenesulfonyl)-piperazin-1-ylmethyl]-phenyl}-N-hydroxy-acrylamide], the IC50 was 260 nM.

As for `O=C(/C=C/c1ccc(CN2CCC3(CCc4ccccc4O3)CC2)cc1)NO` [Compound 38, (E)-N-Hydroxy-3-(4-(spiro[chroman-2,4′-piperidine]-1′-ylmethyl)phenyl)acrylamide], the IC50 amounted to 110 nM.

As to `O=C(/C=C/c1ccc(CN2CCN(S(=O)(=O)c3ccccc3)CC2)cc1)NO` [Compound 50, (E)-3-[4-(4-Benzenesulfonyl-piperazin-1-ylmethyl)-phenyl]-N-hydroxy-acrylamide], the 50% inhibitory concentration (IC50) was 230 nM.

In turn, `COc1cc(Br)c2oc(C3CCN(Cc4ccc(/C=C/C(=O)NO)cc4)CC3)cc2c1` [Compound 36, (E)-3-{4-[4-(7-Bromo-5-methoxy-benzofuran-2-yl)-piperidin-1-ylmethyl]-phenyl}-N-hydroxy-acrylamide] had an IC50 of 500 nM.

Turning to `O=C(/C=C/c1ccc(CN2CCC(c3cc4ccccc4o3)CC2)cc1)NO` [Compound 35, (E)-3-[4-(4-Benzofuran-2-yl-piperidin-1-ylmethyl)-phenyl]-N-hydroxy-acrylamide], the IC50 is 46 nM.

With `O=C(/C=C/c1ccc(CN2CCC(N3CCNC3=O)CC2)cc1)NO` [Compound 44, (E)-N-Hydroxy-3-{4-[4-(2-oxo-imidazolidin-1-yl)-piperidin-1-ylmethyl]-phenyl}-acrylamide], the midpoint of inhibition, the IC50, lay at 50 nM.

Compound `Cn1c(N2CCN(Cc3ccc(/C=C/C(=O)NO)cc3)CC2)cccc1=O` [Compound 30, (E)-N-Hydroxy-3-{4-[4-(1-methyl-6-oxo-1,6-dihydro-pyridin-2-yl)-piperazin-1-ylmethyl]-phenyl}-acrylamide] had a concentration for half-maximal inhibition (IC50) of 170 nM.

In turn, `CC1(C)c2[nH]c3ccccc3c2CCN1Cc1ccc(/C=C/C(=O)NO)cc1` [Compound 22, (E)-3-[4-(1,1-Dimethyl-1,3,4,9-tetrahydro-beta-carbolin-2-ylmethyl)-phenyl]-N-hydroxy-acrylamide] yielded a half-maximal inhibitory concentration (IC50) of 150 nM.

`CCOC(=O)N1CCN(Cc2ccc(/C=C/C(=O)NO)cc2)CC1` [Compound 28, 4-[4-((E)-2-Hydroxycarbamoyl-vinyl)-benzyl]-piperazine-1-carboxylic acid ethyl ester] showed a half-maximal inhibitory concentration (IC50) of 170 nM.

As for `O=C(/C=C/c1ccc(CN2CCOCC2)cc1)NO` [Compound 47, (E)-N-Hydroxy-3-(4-morpholin-4-ylmethyl-phenyl)-acrylamide], it took 300 nM to reach half-maximal inhibition (IC50).

The compound `CN1C(=O)C2(CCN(Cc3ccc(/C=C/C(=O)NO)cc3)CC2)c2ccccc21` [Compound 43, (E)-N-Hydroxy-3-(4-((1-methyl-2-oxospiro[indoline-3,4′-piperidine]-1′-yl)methyl)phenyl)acrylamide] yielded an IC50 of 24 nM.

Turning to `O=C(CCc1ccc(CN2CCCC(c3c(-c4ccccc4)[nH]c4ccccc34)C2)cc1)NO` (stereo not shown) [Compound 16, N-Hydroxy-3-{4-[3-(2-phenyl-1H-indol-3-yl)-piperidin-1-ylmethyl]-phenyl}-propionamide], the IC50 came to 2.2 nM.

The compound `O=C(/C=C/c1ccc(CN2CCC3(CC2)OCCO3)cc1)NO` [Compound 48, (E)-3-[4-(1,4-Dioxa-8-aza-spiro[4.5]dec-8-ylmethyl)-phenyl]-N-hydroxy-acrylamide] displayed an IC50 of 130 nM.
